Tested on: c-Fos regulatory region
Assay: Activity-dependent expression of a reporter driven by c-Fos regulatory regions
Conditions: comparison of three regulatory regions
Description: The activity-dependent expression of a reporter construct driven by a regulatory region containing 761 bp of 5′ mouse c-Fos non-coding sequence, mouse c-Fos exon 1 and mouse c-Fos intron 1, as depicted in FIG. 9 (SEQ ID NO:7) was compared to: (1) the activity-dependent expression of the same reporter driven by the c-Fos 5′-non-coding sequence depicted in FIG. 10 (SEQ ID NO:1) and (2) the activity-dependent expression of the same reporter driven by the entire c-Fos gene followed by an IRES as depicted in FIG. 11 (SEQ ID NO:29).

SEQ ID NO:7: reporter driven by regulatory region containing 761 bp of 5′ mouse c-Fos non-coding sequence, mouse c-Fos exon 1 and intron 1
activity-dependent expression of the reporter: best for high, non-leaky expression
